The test system of one assay is BpGH16MLG. The assay can be described thus: Initial screening of BpGH16MLG against substrates (TLC). Type of assay: biochemical, Blautia producta ATCC 27340. Particulars: pH 5.7, 37 °C, 2 h. How it is done: After the appropriate incubation time, the reaction was terminated by boiling (5 min), and generated oligosaccharides were analyzed by thin layer chromatography (TLC). Typically, 1 μl of the reaction mixture was used for TLC analysis. TLC analysis was performed on Silica Gel 60 F254 (Merck), and produced sugars were visualized by spraying TLC with 5% H2SO4 in ethanol, followed by heating.

For a further assay, the target named is T1, BpGH94MLG (Blautia producta, UniProt A0A7G5MNS2).
T1 sequence (A0A7G5MNS2 1-804): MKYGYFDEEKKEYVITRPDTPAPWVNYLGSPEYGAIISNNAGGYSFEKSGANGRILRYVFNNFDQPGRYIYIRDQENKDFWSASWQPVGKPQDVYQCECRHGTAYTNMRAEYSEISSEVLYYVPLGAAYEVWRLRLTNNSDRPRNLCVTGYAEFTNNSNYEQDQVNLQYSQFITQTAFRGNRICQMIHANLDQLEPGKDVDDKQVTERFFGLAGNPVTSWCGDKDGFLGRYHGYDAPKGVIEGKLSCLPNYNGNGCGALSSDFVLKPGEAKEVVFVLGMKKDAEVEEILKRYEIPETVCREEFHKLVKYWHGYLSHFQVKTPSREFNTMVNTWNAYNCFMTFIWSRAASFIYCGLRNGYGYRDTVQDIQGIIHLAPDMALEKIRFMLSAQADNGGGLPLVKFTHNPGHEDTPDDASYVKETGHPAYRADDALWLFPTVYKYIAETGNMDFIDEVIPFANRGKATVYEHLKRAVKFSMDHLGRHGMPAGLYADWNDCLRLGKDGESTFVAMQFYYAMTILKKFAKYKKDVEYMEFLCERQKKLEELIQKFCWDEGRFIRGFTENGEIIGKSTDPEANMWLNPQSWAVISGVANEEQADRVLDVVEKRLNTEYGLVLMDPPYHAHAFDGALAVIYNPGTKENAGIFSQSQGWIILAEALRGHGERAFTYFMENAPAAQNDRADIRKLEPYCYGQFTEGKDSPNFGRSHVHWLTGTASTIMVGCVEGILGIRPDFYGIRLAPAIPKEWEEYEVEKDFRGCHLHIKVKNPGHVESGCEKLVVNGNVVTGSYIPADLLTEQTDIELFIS
The assay can be described thus: Phosphorolysis activity of BpGH94MLG on substrates (TLC). The following applies: inorganic phosphate, 37 °C. The assay is classed as biochemical, Blautia producta ATCC 27340. On the procedure:
TLC was used for analyzing enzymatic actions. […] Kinetics parameters for BpGH94MLG were determined with G4G3G, G4G4G3G and cellotriose, following a p-hydroxybenzoic acid hydrazide (PAHBAH) reducing sugar assay ([69]).

In another assay the target is BpSBPMLG (Blautia producta, UniProt A0ABX6JB09). The assay can be described thus: Isothermal titration calorimetry of oligosaccharide binding to BpSBPMLG. The following applies: for -TΔS^0 / n (binding stoichiometry) / ΔG^0 / ΔH: ITC at 25 °C, 10 mM sodium phosphate pH 7.0. Also noted: species or system Blautia producta ATCC 27340. On the procedure: The binding of β-(1,4), β-(1,3), and MLG-oligosaccharides to BpSBPMLG was measured at 25 °C in 10 mM sodium phosphate buffer (pH 7) using a MicroCal PEAQ-ITC (Malvern). The protein was extensively dialyzed against 10 mM sodium phosphate and all glycan ligands were also dissolved in the same buffer to minimize the heat of dilution. 13 injections of an oligosaccharide were titrated on BpSBPMLG present in the sample cell. Various preliminary titration setups were tried by changing amounts of protein (5–100 μM) and ligand (50 μM–10 mM) to get the best experimental conditions. Thermodynamic binding parameters [calculates binding affinity (Kd), stoichiometry (n), enthalpy (ΔH), Gibbs free energy change (ΔG), and entropy (ΔS)] were determined using the MicroCal PEAQ-ITC analysis software.
BpSBPMLG, sequence (A0ABX6JB09 entry or part of it): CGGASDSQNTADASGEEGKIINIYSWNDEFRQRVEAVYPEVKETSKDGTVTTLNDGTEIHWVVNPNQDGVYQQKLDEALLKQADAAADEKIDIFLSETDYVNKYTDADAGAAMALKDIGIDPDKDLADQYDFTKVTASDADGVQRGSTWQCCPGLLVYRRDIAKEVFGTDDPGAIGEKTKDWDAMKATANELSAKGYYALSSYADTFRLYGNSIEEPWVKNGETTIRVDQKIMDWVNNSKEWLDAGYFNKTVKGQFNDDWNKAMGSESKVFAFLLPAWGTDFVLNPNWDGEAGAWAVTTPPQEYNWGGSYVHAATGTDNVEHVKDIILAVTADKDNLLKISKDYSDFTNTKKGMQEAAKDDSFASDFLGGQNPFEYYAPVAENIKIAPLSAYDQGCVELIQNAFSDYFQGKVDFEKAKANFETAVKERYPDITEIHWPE

Another assay addresses BpGH3-AR8MLG (Blautia producta, UniProt A0ABX6J8C8). The assay is classed as biochemical, Blautia producta ATCC 27340. The following applies: PAHBAH assay; 100 mM HEPES pH 6.5, 37 °C.
The next assay has as its system TaCDP. Also noted: method as in PMID 28687766. Particulars: phosphorolytic reaction; cited from earlier work.
For a further assay, the system named is BpGH16MLG (BPGH16). The assay can be described thus: Michaelis-Menten kinetics of BpGH16MLG on β-glucans (DNS assay). The assay is classed as biochemical, Blautia producta ATCC 27340. Particulars: native BPGH16; DNS assay; pH 5.7, 37 °C. How it is done:
Then, reactions were terminated by boiling for 5 min. Enzymatic assays were determined with 3,5- dinitrosalicylic acid (DNS) assay ([85]). In brief, 0.05 g Na2SO3 and 1 g DNS were mixed in a 50 ml water-containing reagent bottle and stirred about 6 h using a magnetic stirrer. After that, 200 μl phenol was added and made up to 100 ml. A working solution of DNS was prepared by adding 50 μl glucose (20% (w/v) stock) in prepared 100 ml of reagent mixtures and immediately used for experiments without adding NaOH. 80 μl DNS reagent was added to the reaction mixtures and incubated at 100 °C for 10 min, followed by ice-cooling for 10 min. Consequently, recorded the developed color spectrophotometrically at 575 nm ([85]). A standard curve generated by different concentrations of maltose was used for determining released reducing sugars in each case.

Like-named read-outs stand apart in the source and are kept apart here.

BpGH3-AR8MLG, sequence (A0ABX6J8C8 entry or part of it): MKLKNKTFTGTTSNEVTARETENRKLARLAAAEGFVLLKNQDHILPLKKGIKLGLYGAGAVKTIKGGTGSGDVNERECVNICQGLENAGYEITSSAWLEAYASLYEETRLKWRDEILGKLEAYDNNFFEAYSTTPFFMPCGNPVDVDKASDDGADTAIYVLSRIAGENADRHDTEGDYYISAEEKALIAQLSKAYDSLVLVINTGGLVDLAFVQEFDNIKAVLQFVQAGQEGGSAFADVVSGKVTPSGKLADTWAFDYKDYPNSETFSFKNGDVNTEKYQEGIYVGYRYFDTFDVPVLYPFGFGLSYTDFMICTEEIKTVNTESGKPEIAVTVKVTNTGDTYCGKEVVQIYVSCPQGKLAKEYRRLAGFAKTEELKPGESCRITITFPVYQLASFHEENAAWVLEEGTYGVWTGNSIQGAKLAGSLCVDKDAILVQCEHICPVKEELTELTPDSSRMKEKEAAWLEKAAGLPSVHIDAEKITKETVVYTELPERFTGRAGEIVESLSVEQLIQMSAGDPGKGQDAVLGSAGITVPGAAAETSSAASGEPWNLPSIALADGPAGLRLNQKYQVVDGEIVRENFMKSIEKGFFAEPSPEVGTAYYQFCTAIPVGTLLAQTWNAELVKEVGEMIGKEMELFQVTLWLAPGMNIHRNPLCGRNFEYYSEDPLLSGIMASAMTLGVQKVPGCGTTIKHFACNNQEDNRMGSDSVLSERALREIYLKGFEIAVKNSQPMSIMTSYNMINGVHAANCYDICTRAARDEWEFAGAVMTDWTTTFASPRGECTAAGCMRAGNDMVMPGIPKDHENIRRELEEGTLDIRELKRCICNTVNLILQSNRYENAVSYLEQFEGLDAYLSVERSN
Description for BpGH3-AR8MLG: 150 μl of a freshly prepared 8:2 mixture of reagent A (50 mM sodium sulfite, 0.3 M 4-hydroxybenzhydrazide and 0.6 M HCl) and reagent B (50 mM trisodium citrate, 10 mM CaCl2, 0.5 M NaOH) were added to 50 μl sample. The reaction cocktail was boiled for 10 min at 100 °C. After the reaction was cooled down, the absorbance was recorded at 410 nm using the SpectraMax i3x multi-mode microplate reader. A calibration curve with different concentrations of glucose (0, 2, 4, 8, 16, 40, 80, 100, 200, 300, and 500 μM) was employed for each experiment to calculate the released amount of glucose (reducing end equivalents). The same samples were also used for control measurement, and the control value was subtracted from test reading prior to calculate kinetics parameters. In all cases, the Km, Vmax, and kcat were analyzed on GraphPad Prism. Three independent replicates were used for each test. TLC analyses were used for understanding the enzymatic degradation profiles of various oligosaccharides.

In the case of yeast β-glucan, in the assay on BpGH16MLG, the “activity of BpGH16MLG on substrate (initial screening)” value (shortened to “activity of BpGH16MLG on substrate”) is on record as “did cleave”.
For `OC[C@H]1O[C@@](CO)(O[C@H]2O[C@H](CO)[C@@H](O)[C@H](O)[C@H]2O)[C@@H](O)[C@@H]1O` [sucrose], the “activity of BpGH16MLG on substrate” value in the assay on BpGH16MLG was “did not show activity”. Besides, the “phosphorolysis activity of BpGH94MLG (in words)” value (from here on “phosphorolysis activity”) on BpGH94MLG was “did not show any phosphorolysis activity”.
As to Gentiobiose, in the assay with BpGH16MLG, the “activity of BpGH16MLG on substrate” value is listed as “did not show activity”. In addition, the “binding to BpSBPMLG (in words)” value on BpSBPMLG (ITC) is “no detectable affinity”. For the same compound, the “phosphorolysis activity” value on BpGH94MLG is “did not show any phosphorolysis activity”.
Broadly, the Kd is the equilibrium constant for the complex coming apart. A word on the Km: it is the substrate concentration at which the rate is half of its maximum. What is called kcat is the maximal rate divided by the concentration of active sites. On to `O=C[C@H](O)[C@@H](O)[C@H](O[C@@H]1O[C@H](CO)[C@@H](O)[C@H](O)[C@H]1O)[C@H](O)CO` [Cellobiose], for which, in the assay with BpGH16MLG, the “activity of BpGH16MLG on substrate” value is “did not show activity”. For the same compound, at BpSBPMLG, the Kd came out at 30.6 µM, the “-TΔS^0” value is 0.8 kcal/mol, the “n (binding stoichiometry)” value amounted to 0.78± 0.18 and the “ΔG^0” value is -6.2 kcal/mol. The compound further gave a ΔH at BpSBPMLG of -7.0 ± 2.2 kcal/mol. Besides, the “binding to BpSBPMLG (in words)” value on BpSBPMLG (ITC) is “some affinity”. In addition, the “phosphorolysis activity” value at BpGH94MLG is “did not show any phosphorolysis activity”. At BpGH3-AR8MLG, the Km stood at 200 ± 30 µM and the kcat amounted to 8 ± 0.1 s⁻¹. In the assay with TaCDP, the Km is 120 µM and the kcat is 0.23 s⁻¹.
With `OC[C@H]1O[C@@H](O[C@H]2[C@H](O)[C@@H](CO)OC(O)[C@@H]2O)[C@H](O)[C@@H](O)[C@@H]1O` (some centres unmarked) [Laminaribiose], the “activity of BpGH16MLG on substrate” value in the assay on BpGH16MLG is listed as “did not show activity”. Also, on BpSBPMLG, the Kd is 22.1 µM, the “n (binding stoichiometry)” value came out at 1.03 ± 0.02, the “ΔG^0” value is -6.35 kcal/mol and the ΔH was -3.14 ± 0.16 kcal/mol. Moreover, on BpSBPMLG (ITC), the “binding to BpSBPMLG (in words)” value is “some affinity”. The “phosphorolysis activity” value on BpGH94MLG is reported as “did not show any phosphorolysis activity”. Further, on BpGH3-AR8MLG, the Km is 240 ± 30 µM and the kcat amounted to 12 ± 0.2 s⁻¹.
As to `OC[C@H]1O[C@@H](O[C@@H]2[C@@H](O)[C@H](O[C@H]3[C@H](O)[C@@H](CO)OC(O)[C@@H]3O)O[C@H](CO)[C@H]2O)[C@H](O)[C@@H](O)[C@@H]1O` (some centres unmarked) [Laminaritriose], the “activity of BpGH16MLG on substrate” value in the assay on BpGH16MLG is listed as “did cleave”. In addition, at BpSBPMLG, the Kd was determined as 3.41 µM, the “-TΔS^0” value was found to be 3.8 kcal/mol, the “n (binding stoichiometry)” value is on record as 0.9 ± 0.01 and the “ΔG^0” value is -7.46 kcal/mol. This compound also gave a ΔH on BpSBPMLG of -3.66 ± 0.02 kcal/mol. The “phosphorolysis activity” value at BpGH94MLG is recorded as “did not show any phosphorolysis activity”.
With `OC[C@H]1O[C@@H](O[C@H]2[C@H](O)[C@@H](O)[C@H](O)O[C@@H]2CO)[C@H](O)[C@@H](O)[C@H]1O` [lactose], the “binding to BpSBPMLG (in words)” value at BpSBPMLG (ITC) is reported as “no detectable affinity”.
Turning to Oat β-glucan, in the assay with BpGH16MLG (BPGH16), the Km is 0.32 ± 0.05 mg/mL and the kcat is 46 ± 0.8 s⁻¹. In addition, the “activity of BpGH16MLG on substrate” value with BpGH16MLG is on record as “did cleave”.
With `OC[C@H]1O[C@@H](O[C@H]2[C@H](O)[C@@H](O)[C@H](O[C@H]3[C@H](O)[C@@H](O)[C@H](O[C@H]4[C@H](O)[C@@H](O)C(O)O[C@@H]4CO)O[C@@H]3CO)O[C@@H]2CO)[C@H](O)[C@@H](O)[C@@H]1O` (some centres unmarked) [Cellotetraose], at BpSBPMLG, binding was put at a Kd of 0.75 µM, the “-TΔS^0” value was 8.25 kcal/mol, the “n (binding stoichiometry)” value came to 0.45 ± 0.02 and the “ΔG^0” value is -8.35 kcal/mol. The compound also gave a ΔH on BpSBPMLG of -16.6 ± 0.75 kcal/mol. In addition, the “n (binding stoichiometry)” value on BpSBPMLG (listed as cellotetraose) stood at 0.45. Besides, on BpGH3-AR8MLG, the Km turned out to be 470 ± 60 µM and the kcat worked out at 20 ± 0.2 s⁻¹.
With `OC[C@H]1O[C@H](O[C@H]2[C@H](O)[C@@H](O)[C@H](O)O[C@@H]2CO)[C@H](O)[C@@H](O)[C@@H]1O` [maltose], in the assay on BpGH16MLG, the “activity of BpGH16MLG on substrate” value is given as “did not show activity”. For the same compound, on BpSBPMLG (ITC), the “binding to BpSBPMLG (in words)” value is on record as “no detectable affinity”. In addition, the “phosphorolysis activity” value on BpGH94MLG was “did not show any phosphorolysis activity”.
With lentinan, the “activity of BpGH16MLG on substrate” value in the assay with BpGH16MLG was “did cleave”.
Turning to `OC[C@H]1O[C@@H](O[C@@H]2[C@@H](O)[C@H](O[C@@H]3[C@@H](O)[C@H](O[C@H]4[C@H](O)[C@@H](CO)OC(O)[C@@H]4O)O[C@H](CO)[C@H]3O)O[C@H](CO)[C@H]2O)[C@H](O)[C@@H](O)[C@@H]1O` (some centres unmarked) [Laminaritetraose], at BpSBPMLG, the “-TΔS^0” value was found to be 5.29 kcal/mol and the ΔH was -0.15 ± 0.12 kcal/mol. Besides, the Kd at BpSBPMLG (ITC, read-out: Kd) came out at 5600 µM.

The values are drawn from paper PMC10318527, “Utilization of dietary mixed-linkage β-glucans by the Firmicute Blautia producta” (The Journal of Biological Chemistry, 2023).
